Source: article PMC6941952, “A homogeneous bioluminescent immunoassay to probe cellular signaling pathway regulation” (Communications Biology, 2020)
Several values for one entry are separate records, joined by “and”; a condition that tells them apart may be missing. Equal entries are not always repeated.

Tested on: total IκBα
Experiment: NanoBiT cell-based immunoassay, total IκBα in MCF-7 cells
Design: species or system human
Settings: 4 h; for Average IkB protein (%) / Raw data IkB / Subtract reagent background IkB / protein (%) IkB: MCF-7, Fig 7c; for protein (%) IkB: replicate
Description: Prior to NanoBiT Cell-Based Immunoassay, 50,000 cells were seeded in 160 µl of complete growth media per well of a 96-well plate and incubated overnight. […] If necessary, the cell culture media were replaced with serum-free media after the cells were stably adherent on the plate and incubated overnight. To treat cells with activators or inhibitors, medium was changed to 30 µl of medium containing inhibitors. If activation of a specific pathway is needed, the cells were stimulated with 10 µl of medium containing activators. To lyse the cells, 10 µl of lysis buffer containing 0.1% digitonin diluted in 1X immunoassay buffer with protease and phosphatase inhibitors was added and the plates were mixed vigorously for 20 min. Then, 50 µl of an antibody mix containing two primary antibodies against the target protein and NanoBiT detecting antibodies (0.3 µl each per well), diluted in 1X immunoassay buffer was added to the lysates. The plates were incubated at 23 °C for 90 min, followed by the addition of 25 µl of Nano-Glo® reagent consisting of Nano-Glo® Luciferase Assay Substrate mixed with 1X immunoassay buffer. Luminescence was measured using a plate-reading luminometer.
Single dose or dose response inhibitor treatments were performed prior to activation of the pathways as follows. For IκBα, the cells were treated in 30 µl medium with IKK16 or MG132 for 60 min before the addition of 10 µl of DMEM containing appropriate concentration of TNFα. To measure phosphorylation of AKT or STAT3, the corresponding NanoBiT immunoassays were developed with MCF-7 or A431 cells, respectively, according the same scheme used to develop the IκBα assay using the primary antibodies for AKT and STAT3 described in the reagents section. […] Treatment with LY294002 was performed in 30 µl medium and cells were incubated for 60 min before the addition of 1 µM Insulin. To measure STAT3 phosphorylation, A431 cells were incubated overnight in DMEM medium without serum. […] After addition of the stimulators, the cells were incubated for additional times as follows. IκBα phosphorylation and degradation analyses required both time courses and single time points as described in figures. […] The NanoBiT immunoassay protocol was followed as described above.
All 96-well assay plates were read using a GloMax® 96 Microplate Luminometer from Promega. The instrument was set to 0.5 s integration time. In order to obtain net change of signal, the reagent background values (signal from the well containing all reagent except primary antibodies) were subtracted from the sample values. To plot and analyze the data, Microsoft Excel and GraphPad Prism® Software were used. IC50 values were determined by using a nonlinear regression fit to a sigmoidal dose response (variable slope).

Compound: C[C@]12CC[C@@H]3c4ccc(O)cc4C[C@@H](CCCCCCCCC[S+]([O-])CCCC(F)(F)C(F)(F)F)[C@H]3[C@@H]1CC[C@@H]2O (stereo partly drawn) [Fulvestrant]
- Average IkB protein (%) (Fulvestrant 0.0976562 nM): 103.1%
- Raw data IkB (Fulvestrant 0.0976562 nM): 2320000 and 2388000 and 2321000
- Subtract reagent background IkB (Fulvestrant 0.0976562 nM): 2160700 and 2093700 and 2092700
- protein (%) IkB (Fulvestrant 0.0976562 nM): 102.8% and 100.3% and 106.3%
- Average IkB protein (%) (Fulvestrant 0.195312 nM): 102.8%
- Raw data IkB (Fulvestrant 0.195312 nM): 2292000 and 2388000 and 2330000
- Subtract reagent background IkB (Fulvestrant 0.195312 nM): 2161100 and 2103100 and 2065100
- protein (%) IkB (Fulvestrant 0.195312 nM): 102.8% and 100.7% and 104.9%
- Average IkB protein (%) (Fulvestrant 0.390625 nM): 106.4%
- Raw data IkB (Fulvestrant 0.390625 nM): 2337000 and 2479000 and 2412000
- Subtract reagent background IkB (Fulvestrant 0.390625 nM): 2252550 and 2185550 and 2110550
- protein (%) IkB (Fulvestrant 0.390625 nM): 107.1% and 104.7% and 107.3%
- Average IkB protein (%) (Fulvestrant 0.78125 nM): 107.7%
- Raw data IkB (Fulvestrant 0.78125 nM): 2309000 and 2550000 and 2458000
- Subtract reagent background IkB (Fulvestrant 0.78125 nM): 2323650 and 2231650 and 2082650
- protein (%) IkB (Fulvestrant 0.78125 nM): 110.5% and 106.9% and 105.8%
- Average IkB protein (%) (Fulvestrant 1.5625 nM): 109.4%
- Raw data IkB (Fulvestrant 1.5625 nM): 2305000 and 2596000 and 2525000
- Subtract reagent background IkB (Fulvestrant 1.5625 nM): 2368700 and 2297700 and 2077700
- protein (%) IkB (Fulvestrant 1.5625 nM): 110.1% and 105.6%
- Average IkB protein (%) (Fulvestrant 3.125 nM): 110.7%
- Raw data IkB (Fulvestrant 3.125 nM): 2392000 and 2556000 and 2547000
- Subtract reagent background IkB (Fulvestrant 3.125 nM): 2330150 and 2321150 and 2166150
- protein (%) IkB (Fulvestrant 3.125 nM): 110.8% and 111.2% and 110.1%
- Average IkB protein (%) (Fulvestrant 6.25 nM): 107.5%
- Raw data IkB (Fulvestrant 6.25 nM): 2316000 and 2499000 and 2485000
- Subtract reagent background IkB (Fulvestrant 6.25 nM): 2273600 and 2259600 and 2090600
- protein (%) IkB (Fulvestrant 6.25 nM): 108.1% and 108.2% and 106.2%
- Average IkB protein (%) (Fulvestrant 25 nM): 102.2%
- Raw data IkB (Fulvestrant 25 nM): 2228000 and 2399000 and 2343000
- Subtract reagent background IkB (Fulvestrant 25 nM): 2174600 and 2118600 and 2003600
- protein (%) IkB (Fulvestrant 25 nM): 103.4% and 101.5% and 101.8%
- Average IkB protein (%) (Fulvestrant 50 nM): 99.5%
- Raw data IkB (Fulvestrant 50 nM): 2216000 and 2302000 and 2278000
- Subtract reagent background IkB (Fulvestrant 50 nM): 2078950 and 2054950 and 1992950
- protein (%) IkB (Fulvestrant 50 nM): 98.9% and 98.4% and 101.3%
- Average IkB protein (%) (Fulvestrant 100 nM): 94.0%
- Raw data IkB (Fulvestrant 100 nM): 2084000 and 2146000 and 2219000
- Subtract reagent background IkB (Fulvestrant 100 nM): 1926250 and 1999250 and 1864250
- protein (%) IkB (Fulvestrant 100 nM): 91.6% and 95.8% and 94.7%
- cytotoxicity inferred from IκBα level (MCF-7 cells): lack of cytotoxicity
- effect on IκBα protein level (MCF-7 cells, same compound titration): did not affect
